Consider 15 compounds from patent US11339130B1 (Blade Therapeutics, Inc., priority 2016, dated 2022).

The structures appear in SMILES notation.

Holding throughout (type): biochemical
Assay [1] addresses T1, Human Calpain 1/NS1 (Homo sapiens, UniProt P07384).
T1 sequence (P07384 1-714): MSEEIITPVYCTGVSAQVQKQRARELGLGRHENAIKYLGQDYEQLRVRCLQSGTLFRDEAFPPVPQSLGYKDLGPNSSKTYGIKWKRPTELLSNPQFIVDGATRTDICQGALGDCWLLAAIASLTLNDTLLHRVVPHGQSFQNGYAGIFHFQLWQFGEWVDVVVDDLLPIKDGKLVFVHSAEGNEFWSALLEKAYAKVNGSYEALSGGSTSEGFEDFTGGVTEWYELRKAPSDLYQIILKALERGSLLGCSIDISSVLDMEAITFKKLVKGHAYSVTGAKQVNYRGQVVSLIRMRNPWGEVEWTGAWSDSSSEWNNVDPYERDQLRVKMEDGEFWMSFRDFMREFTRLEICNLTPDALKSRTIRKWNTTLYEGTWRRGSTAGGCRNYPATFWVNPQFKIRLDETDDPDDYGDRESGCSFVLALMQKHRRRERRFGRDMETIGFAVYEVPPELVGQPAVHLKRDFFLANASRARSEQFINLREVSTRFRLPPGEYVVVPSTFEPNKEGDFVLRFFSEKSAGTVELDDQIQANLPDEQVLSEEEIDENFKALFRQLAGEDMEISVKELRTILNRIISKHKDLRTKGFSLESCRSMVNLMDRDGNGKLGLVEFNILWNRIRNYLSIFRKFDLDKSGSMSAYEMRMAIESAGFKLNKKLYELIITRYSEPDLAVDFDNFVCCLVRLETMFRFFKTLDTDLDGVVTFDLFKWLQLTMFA
T1 sequence (P04632 1-268 partner): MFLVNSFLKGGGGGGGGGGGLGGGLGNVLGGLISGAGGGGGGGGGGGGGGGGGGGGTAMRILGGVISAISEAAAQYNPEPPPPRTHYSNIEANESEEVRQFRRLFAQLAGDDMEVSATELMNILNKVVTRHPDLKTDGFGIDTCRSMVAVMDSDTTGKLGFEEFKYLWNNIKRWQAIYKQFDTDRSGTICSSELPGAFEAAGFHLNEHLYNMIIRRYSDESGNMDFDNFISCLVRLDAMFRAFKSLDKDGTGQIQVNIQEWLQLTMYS
Put plainly: Calpain inhibition continuous fluorescence (FRET) assay, Human Calpain 1/NS1. As to conditions: Column A; read-out: Human Calpain 1/NS1 IC50. The procedure:
(§1) Calpain 1, 2, and 9 activity and inhibition thereof was assessed by means of a continuous fluorescence assay. The SensoLyte 520 Calpain substrate (Anaspec Inc) was optimized for detecting calpain activity. This substrate contains an internally quenched 5-FAM/QXL™ 520 FRET pair. Calpains 1, 2, and 9 cleave the FRET substrate into two separate fragments resulting in an increase of 5-FAM fluorescence that is proportional to calpain activity
(§2) Assays were typically setup in black 384-well plates using automated liquid handling as follows. Calpain assay base buffer typically contains 50 mM Tris, pH 7.5, 100 mM NaCl and 1 mM DTT. Inhibitors were serially diluted in DMSO and used to setup 2× mixtures with calpains in the aforementioned buffer. After incubation at ambient temperature (25C), the reaction was initiated by adding a 2× mix of the fluorescent peptide substrate and CaCl2) (required for in-situ calpain activation) in the same buffer. Reaction progress curve data were typically collected for 10 min using excitation/emission wavelengths of 490 nm/520 nm on SpectraMax i3× or the FLIPR-Tetra plate readers (Molecular Devices Inc). Reaction rates were calculated from progress curve slopes typically over 1-5 min. Dose response curves (rate vs. log inhibitor concentration) were typically fit to a 4-parameter logistic function to extract IC50 values.

The target of assay [2] is T2, Human Calpain 2/NS1 (Homo sapiens, UniProt P17655).
T2 sequence (P17655 1-700): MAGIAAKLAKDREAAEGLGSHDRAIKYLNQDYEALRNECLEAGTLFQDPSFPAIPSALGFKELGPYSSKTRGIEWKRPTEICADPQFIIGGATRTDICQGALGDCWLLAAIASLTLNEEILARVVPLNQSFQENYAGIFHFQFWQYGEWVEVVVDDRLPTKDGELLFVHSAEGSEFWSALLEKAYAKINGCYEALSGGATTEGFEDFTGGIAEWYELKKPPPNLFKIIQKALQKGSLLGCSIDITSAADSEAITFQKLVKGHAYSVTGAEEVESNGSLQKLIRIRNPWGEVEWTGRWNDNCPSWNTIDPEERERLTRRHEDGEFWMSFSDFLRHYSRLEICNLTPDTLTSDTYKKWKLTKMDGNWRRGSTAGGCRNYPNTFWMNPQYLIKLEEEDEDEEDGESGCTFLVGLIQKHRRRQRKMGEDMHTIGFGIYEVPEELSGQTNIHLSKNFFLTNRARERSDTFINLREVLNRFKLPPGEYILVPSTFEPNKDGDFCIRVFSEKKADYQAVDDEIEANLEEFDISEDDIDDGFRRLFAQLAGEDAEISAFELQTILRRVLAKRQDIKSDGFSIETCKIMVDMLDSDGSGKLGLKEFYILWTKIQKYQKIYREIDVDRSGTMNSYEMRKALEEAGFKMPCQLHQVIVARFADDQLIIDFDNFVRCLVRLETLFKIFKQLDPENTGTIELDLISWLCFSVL
T2 sequence (P04632 1-268 partner): T1 sequence (P04632 1-268 partner)
In words: Calpain inhibition continuous fluorescence (FRET) assay, Human Calpain 2/NS1. As to conditions: Column B; read-out: Human Calpain 2/NS1 IC50. How it is done: as §1, §2

For assay [3], the target named is T3, Human Calpain 9/NS1 (Homo sapiens, UniProt O14815).
T3 sequence (O14815 1-690): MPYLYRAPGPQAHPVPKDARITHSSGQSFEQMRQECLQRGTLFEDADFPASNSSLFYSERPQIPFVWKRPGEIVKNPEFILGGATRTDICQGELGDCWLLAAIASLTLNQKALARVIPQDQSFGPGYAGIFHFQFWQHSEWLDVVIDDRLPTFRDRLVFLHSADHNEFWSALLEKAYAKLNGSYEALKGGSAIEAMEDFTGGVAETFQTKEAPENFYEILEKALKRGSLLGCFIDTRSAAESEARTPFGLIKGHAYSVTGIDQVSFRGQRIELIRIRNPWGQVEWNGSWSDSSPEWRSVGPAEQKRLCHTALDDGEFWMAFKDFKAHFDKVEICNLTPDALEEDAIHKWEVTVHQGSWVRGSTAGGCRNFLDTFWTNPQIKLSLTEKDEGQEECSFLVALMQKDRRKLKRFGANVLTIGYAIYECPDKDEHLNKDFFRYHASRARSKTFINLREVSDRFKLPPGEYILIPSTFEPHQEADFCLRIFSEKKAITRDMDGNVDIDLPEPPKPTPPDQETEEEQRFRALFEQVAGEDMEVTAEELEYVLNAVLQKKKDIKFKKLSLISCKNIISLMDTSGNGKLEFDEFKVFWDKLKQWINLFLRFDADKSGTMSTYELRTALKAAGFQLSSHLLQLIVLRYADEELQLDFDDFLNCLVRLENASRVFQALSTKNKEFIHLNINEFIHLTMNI
T3 sequence (P04632 1-268 partner): T1 sequence (P04632 1-268 partner)
Put plainly: Calpain inhibition continuous fluorescence (FRET) assay, Human Calpain 9/NS1. As to conditions: Column C; read-out: Human Calpain 9/NS1 IC50. The procedure: as §1, §2

Regarding `CCCC[C@H](NC(=O)c1c(C)noc1-c1ccccc1)C(=O)C(N)=O` [Compound 62, (S)—N-(1-amino-1,2-dioxoheptan-3-yl)-3-methyl-5-phenylisoxazole-4-carboxamide], the IC50 in assay [1], in assay [2] and in assay [3] was under 3 µM each time.

On to `O=C(NC1CC1)C(=O)[C@H](Cc1ccccc1)NC(=O)c1scnc1-n1cc2ccccc2n1` [Compound 64, (S)—N-(4-(cyclopropylamino)-3,4-dioxo-1-phenylbutan-2-yl)-4-(2H-indazol-2-yl)thiazole-5-carboxamide], for which the IC50 in assay [1], in assay [2] and in assay [3] was under 3 µM in each case.

Take `Cc1cc(C(=O)N[C@@H](Cc2ccccc2)C(=O)C(=O)NC2CC2)n(-c2ncccn2)n1` [Compound 65, (S)—N-(4-(cyclopropylamino)-3,4-dioxo-1-phenylbutan-2-yl)-3-methyl-1-(pyrimidin-2-yl)-1H-pyrazole-5-carboxamide]: the IC50 in assay [1], in assay [2] and in assay [3] was over 10 µM in each case.

Consider `Cc1cc(C(=O)N[C@@H](Cc2ccccc2)C(=O)C(N)=O)n(-c2ncccc2C)n1` [Compound 66, (S)—N-(4-amino-3,4-dioxo-1-phenylbutan-2-yl)-3-methyl-1-(3-methylpyridin-2-yl)-1H-pyrazole-5-carboxamide], for which the figures for the IC50 in assay [1], in assay [2] and in assay [3] were 3 to 10 µM, under 3 µM and under 3 µM, respectively.

For `Cc1cc(C(=O)N[C@@H](Cc2ccccc2)C(=O)C(=O)NC2CC2)n(-c2ncccc2C)n1` [Compound 67, (S)—N-(4-(cyclopropylamino)-3,4-dioxo-1-phenylbutan-2-yl)-3-methyl-1-(3-methylpyridin-2-yl)-1H-pyrazole-5-carboxamide], the IC50 in assay [1], in assay [2] and in assay [3] was over 10 µM each time.

`NC(=O)C(=O)[C@H](Cc1ccccc1)NC(=O)c1cncn1-c1ccn(-c2ccccc2)n1` [Compound 68, (S)—N-(4-amino-3,4-dioxo-1-phenylbutan-2-yl)-1-(1-phenyl-1H-pyrazol-3-yl)-1H-imidazole-5-carboxamide]: the IC50 in assay [1], in assay [2] and in assay [3] was under 3 µM throughout.

On to `NC(=O)C(=O)[C@H](Cc1ccccc1)NC(=O)c1cncn1-c1n[nH]c2ccccc12` [Compound 69, (S)—N-(4-amino-3,4-dioxo-1-phenylbutan-2-yl)-1-(1H-indazol-3-yl)-1H-imidazole-5-carboxamide], for which the IC50 in assay [1], in assay [2] and in assay [3] was under 3 µM in each case.

Consider `NC(=O)C(=O)[C@H](Cc1ccccc1)NC(=O)c1cncn1-c1nc2ccccc2[nH]1` [Compound 70, (S)—N-(4-amino-3,4-dioxo-1-phenylbutan-2-yl)-1-(1H-benzo[d]imidazol-2-yl)-1H-imidazole-5-carboxamide], for which the IC50 in assay [1], in assay [2] and in assay [3] was under 3 µM in each case.

Take `O=C(NC1CC1)C(=O)[C@H](Cc1ccccc1)NC(=O)c1cncn1-c1nc2ccccc2[nH]1` [Compound 71, (S)-1-(1H-benzo[d]imidazol-2-yl)-N-(4-(cyclopropylamino)-3,4-dioxo-1-phenylbutan-2-yl)-1H-imidazole-5-carboxamide]: the results for the IC50 in assay [1], in assay [2] and in assay [3] were 3 to 10 µM, 3 to 10 µM and over 10 µM, respectively.

Turning to `CC[C@@H](C)[C@H](NC(=O)c1c(C)noc1-c1ccccc1)C(=O)C(N)=O` [Compound 73, N-((3S,4R)-1-amino-4-methyl-1,2-dioxohexan-3-yl)-3-methyl-5-phenylisoxazole-4-carboxamide], the results for the IC50 in assay [1], in assay [2] and in assay [3] were under 3 µM, under 3 µM and over 10 µM, respectively.

On to `NC(=O)C(=O)[C@H](Cc1ccccc1)NC(=O)c1cncn1-c1ncc(-c2ccccc2)cn1` [Compound 74, (S)—N-(4-amino-3,4-dioxo-1-phenylbutan-2-yl)-1-(5-phenylpyrimidin-2-yl)-1H-imidazole-5-carboxamide], for which the IC50 in assay [1], in assay [2] and in assay [3] was under 3 µM throughout.

As for `O=C[C@H](Cc1ccccc1)NC(=O)c1cncn1-c1ncc(-c2ccccc2)cn1` [Compound 75], the results for the IC50 in assay [1], in assay [2] and in assay [3] were under 3 µM, under 3 µM and 3 to 10 µM, respectively.

Take `O=C(NC1CC1)C(=O)[C@H](Cc1ccccc1)NC(=O)c1cncn1-c1ncc(-c2ccccc2)cn1` [Compound 76, (S)—N-(4-(cyclopropylamino)-3,4-dioxo-1-phenylbutan-2-yl)-1-(5-phenylpyrimidin-2-yl)-1H-imidazole-5-carboxamide]: the IC50 in assay [1] was under 3 µM; in assay [2], under 3 µM; in assay [3], 3 to 10 µM.

With `O=C(NC1CC1)C(=O)[C@H](Cc1ccccc1)NC(=O)c1cncn1-c1cc(-c2ncco2)ccn1` [Compound 77, (S)—N-(4-(cyclopropylamino)-3,4-dioxo-1-phenylbutan-2-yl)-1-(4-(oxazol-2-yl)pyridin-2-yl)-1H-imidazole-5-carboxamide], the figures for the IC50 in assay [1], in assay [2] and in assay [3] were under 3 µM, 3 to 10 µM and over 10 µM, respectively.

In the case of `Cc1cc(C(=O)N[C@@H](Cc2ccccc2)C(=O)C(=O)NC2CC2)n(-c2cccc3ncccc23)n1` [Compound 78, (S)—N-(4-(cyclopropylamino)-3,4-dioxo-1-phenylbutan-2-yl)-3-methyl-1-(quinolin-5-yl)-1H-pyrazole-5-carboxamide], the IC50 is over 10 µM in assay [1], 3 to 10 µM in assay [2] and under 3 µM in assay [3].
